Laboratory results as given in patent publication US8877748B2, “Heterocyclic fused anthraquinone derivatives, manufacturing method and pharmaceutical composition using thereof” (National Defense Medical Center, priority 2012, dated 2014).
Where two headings read alike, the source gives them in different places.

Legend:
SR = assay: NCI one-dose screening, leukemia SR; format: cell-based, human; conditions: SR
HCT-116 = assay: NCI one-dose screening, colon cancer HCT-116; format: cell-based, human; conditions: HCT-116, 10 μM
T-47D = assay: NCI one-dose screening, breast cancer T-47D; format: cell-based, human; conditions: T-47D
SF-268 = assay: NCI one-dose screening, CNS cancer SF-268; format: cell-based, human; conditions: SF-268, 10 μM
HOP-62 = assay: NCI one-dose screening, non-small cell lung cancer HOP-62; format: cell-based, human; conditions: HOP-62, 10 μM
HOP-92 = assay: NCI one-dose screening, non-small cell lung cancer HOP-92; format: cell-based, human; conditions: HOP-92, 10 μM
NCI-H322M = assay: NCI one-dose screening, non-small cell lung cancer NCI-H322M; format: cell-based, human
SK-MEL-28 = assay: NCI one-dose screening, melanoma SK-MEL-28; format: cell-based, human; conditions: SK-MEL-28, 10 μM
MOLT-4 = assay: NCI one-dose screening, leukemia MOLT-4; format: cell-based, human; conditions: MOLT-4, 10 μM
SF-295 = assay: NCI one-dose screening, CNS cancer SF-295; format: cell-based, human; conditions: SF-295, 10 μM
HCT-15 = assay: NCI one-dose screening, colon cancer HCT-15; format: cell-based, human; conditions: HCT-15, 10 μM
A549/ATCC = assay: NCI one-dose screening, non-small cell lung cancer A549/ATCC; format: cell-based, human; conditions: A549/ATCC
HL-60, TB = assay: NCI one-dose screening, leukemia HL-60, TB; format: cell-based, human; conditions: HL-60(TB)
UO-31 = assay: NCI one-dose screening, renal cancer UO-31; format: cell-based, human; conditions: UO-31, 10 μM
MDA, -MB-435 = assay: NCI one-dose screening, breast cancer MDA, -MB-435; format: cell-based, human; conditions: Melanoma, MDA-MB-435, 10 μM
SNB-75 = assay: NCI one-dose screening, CNS cancer SNB-75; format: cell-based, human; conditions: SNB-75, 10 μM
[1] = Non-small cell lung cancer, NCI-H322M, 10 μM

| SMILES | Growth Percent (10 μM) (SR) [%] | Growth Percent (10 μM) (HCT-116) [%] | Growth Percent (10 μM) (T-47D) [%] | Growth Percent (10 μM) (SF-268) [%] | Growth Percent (10 μM) (HOP-62) [%] | Growth Percent (10 μM) (HOP-92) [%] | Growth Percent (10 μM) (NCI-H322M) [%] | Growth Percent (10 μM) (SK-MEL-28) [%] | Growth Percent (10 μM) (MOLT-4) [%] | Growth Percent (10 μM) (SF-295) [%] | Growth Percent (10 μM) (HCT-15) [%] | Growth Percent (10 μM) (A549/ATCC) [%] | Growth Percent (10 μM) (HL-60, TB) [%] | Growth Percent (10 μM) (UO-31) [%] | Growth Percent (10 μM) (MDA, -MB-435) [%] | Growth Percent (10 μM) (SNB-75) [%] | Growth Percent (10 μM) (NCI-H322M; [1]) [%] | melting point [°C] |
| --- | --- | --- | --- | --- | --- | --- | --- | --- | --- | --- | --- | --- | --- | --- | --- | --- | --- | --- |
| CN(C)CCNc1cc2c(c3nsnc13)C(=O)c1ccccc1C2=O [C8] | −49.98 | −2.07 | 12.90 | −14.54 | −67.97 | −25.30 | −56.32 | −50.60 | −41.28 | −55.73 | −60.44 | −60.09 | −10.38 | −28.47 | −58.82 | −73.34 | – | – |
| O=C1c2ccccc2C(=O)c2c1cc(N1CCCC1)c1nsnc21 [C7, 4-(pyrrolidine-1-yl)anthra-[2,1-c][1,2,5] thiadiazol-6,11-dione] | 84.23 | 78.67 | 78.19 | 98.43 | 79.16 | – | – | 99.46 | 92.84 | 87.02 | 61.25 | 63.51 | 104.58 | 41.64 | 105.87 | 94.52 | 82.34 | – |
| CC(C)Sc1cc2c(c3nsnc13)C(=O)c1ccccc1C2=O [C18, 4-(isopropylthio)anthra[2,1-c][1,2,5] thiadiazol-6,11-dione] | −47.97 | −36.70 | −24.37 | 7.06 | 13.18 | – | – | −8.32 | −54.56 | −16.57 | 15.31 | −8.14 | −41.24 | −28.43 | −79.28 | 9.12 | −0.80 | 193 to 194 |
| Cc1ccc(Nc2cc3c(c4nsnc24)C(=O)c2ccccc2C3=O)cc1 [C64, 4-(p-tolylamino)anthra[2,1-c][1,2,5] thiadiazol-6,11-dione] | 26.12 | 31.32 | 64.48 | 52.27 | 65.10 | – | – | 74.97 | 12.86 | 75.76 | 32.24 | 56.25 | 46.13 | 56.97 | 65.53 | 80.91 | 94.85 | – |
